Test results published in patent US6903113B2, “Urea substituted imidazopyridines” (3M Innovative Properties Company, priority 2000, dated 2005).

Assays:
[1] = tested on: tumor necrosis factor (α); assay: Cytokine Induction in Human Cells: tumor necrosis factor (α) by ELISA or IGEN Assay; assay type: cell-based; design: key to Lowest Effective Concentration Tumor Necrosis Factor: A “*” indicates that no induction was seen at any of the tested concentrations; details: human PBMC, 18 to 24 hours incubation, compounds generally tested at 30-0.014 μM; for minimal effective concentration: read-out: Lowest Effective Concentration Tumor Necrosis Factor
Excerpt: (§1) An in vitro human blood cell system is used to assess cytokine induction. Activity is based on the measurement of interferon and tumor necrosis factor (α) (IFN and TNF, respectively) secreted into culture media as described by Testerman et. al. In “Cytokine Induction by the Immunomodulators Imiquimod and S-27609”, Journal of Leukocyte Biology, 58, 365-372 (September, 1995).
(§2) Whole blood from healthy human donors is collected by venipuncture into EDTA vacutainer tubes. Peripheral blood mononuclear cells (PBMC) are separated from whole blood by density gradient centrifugation using Histopaque®-1077. Blood is diluted 1:1 with Dulbecco's Phosphate Buffered Saline (DPBS) or Hank's Balanced Salts Solution (HBSS). The PBMC layer is collected and washed twice with DPBS or HBSS and resuspended at 4×10^6 cells/mL in RPMI complete. The PBMC suspension is added to 48 well flat bottom sterile tissue culture plates (Costar, Cambridge, Mass. or Becton Dickinson Labware, Lincoln Park, N.J.) containing an equal volume of RPMI complete media containing test compound.
(§3) The compounds are solubilized in dimethyl sulfoxide (DMSO). The DMSO concentration should not exceed a final concentration of 1% for addition to the culture wells. The compounds are generally tested at concentrations ranging from 30-0.014 μM.
(§4) The solution of test compound is added at 60 μM to the first well containing RPMI complete and serial 3 fold dilutions are made in the wells. The PBMC suspension is then added to the wells in an equal volume, bringing the test compound concentrations to the desired range (30-0.014 μM). The final concentration of PBMC suspension is 2×10^6 cells/mL. The plates are covered with sterile plastic lids, mixed gently and then incubated for 18 to 24 hours at 37° C. in a 5% carbon dioxide atmosphere.
(§5) Following incubation the plates are centrifuged for 10 minutes at 1000 rpm (˜200×g) at 4° C. The cell-free culture supernatant is removed with a sterile polypropylene pipet and transferred to sterile polypropylene tubes. Samples are maintained at −30 to −70° C. until analysis. The samples are analyzed for interferon (α) by ELISA and for tumor necrosis factor (α) by ELISA or IGEN Assay
Tumor necrosis factor (α) (TNF) concentration is determined using ELISA kits available from Biosource International, Camarillo, Calif. Alternately, the TNF concentration can be determined by Origen® M-Series Immunoassay and read on an IGEN M-8 analyzer from IGEN International, Gaithersburg, Md. The immunoassay uses a human TNF capture and detection antibody pair from Biosource International, Camarillo, Calif. Results are expressed in pg/mL.
(§6) The table below lists the lowest concentration found to induce interferon and the lowest concentration found to induce tumor necrosis factor for each compound.

interferon (α) = assay: Cytokine Induction in Human Cells: interferon (α) by ELISA; assay type: cell-based; design: key to Lowest Effective Concentration Interferon: A “*” indicates that no induction was seen at any of the tested concentrations; details: human PBMC, 18 to 24 hours incubation, compounds generally tested at 30-0.014 μM; for minimal effective concentration: read-out: Lowest Effective Concentration Interferon
Excerpt: as §1, §2, §3, §4, §5
Interferon (α) concentration is determined by ELISA using a Human Multi-Species kit from PBL Biomedical Laboratories, New Brunswick, N.J. Results are expressed in pg/mL.
as §6

| SMILES | Lowest Effective Concentration Tumor Necrosis Factor [1] | Lowest Effective Concentration Interferon (interferon (α)) | minimal effective concentration [1] [µM] | minimal effective concentration (interferon (α)) [µM] |
| --- | --- | --- | --- | --- |
| Cc1nc(N)c2ncn(CCCCNC(=O)N[C@@H]3C[C@H]3c3ccccc3)c2c1C (relative stereo) [Example 28, N-[4-(4-amino-6,7-dimethyl-1H-imidazo[4,5-c]pyridin-1-yl)butyl]-N′-[(1R*,2S*)-2-phenylcyclopropyl]urea] | * | * |  |  |
| CCOCc1nc2c(N)nc(C)cc2n1CCCCNC(=O)N[C@@H]1C[C@H]1c1ccccc1 (relative stereo) [Example 46, N-{4-[4-amino-2-(ethoxymethyl)-6-methyl-1H-imidazo[4,5-c]pyridin-1-yl]butyl}-N′-[(1R*,2S*)-2-phenylcyclopropyl]urea] |  |  | 10 | 3.33 |
| CCOCc1nc2c(N)nc(C)c(C)c2n1CCC1CCN(C(=O)N[C@@H]2C[C@H]2c2ccccc2)CC1 (relative stereo) [Example 67, 4-{2-[4-amino-2-(ethoxymethyl)-6,7-dimethyl-1H-imidazo[4,5-c]pyridin-1-yl]ethyl}-N-[(1R*,2S*)-2-phenylcyclopropyl]piperidine-1-carboxamide] |  |  | 3.33 | 1.11 |
| CCCCc1nc2c(N)nc(C)c(C)c2n1CCCCNC(=O)c1ccccc1 [Example 1, N-[4-(4-Amino-2-butyl-6,7-dimethyl-1H-imidazo[4,5-c]pyridin-1-yl)butyl]benzamide] |  |  | 1.11 | 0.12 |
| CCCCc1nc2c(N)nc(C)c(C)c2n1CCCCNS(=O)(=O)c1ccc(F)cc1 [Example 3, N-[4-(4-Amino-2-butyl-6,7-dimethyl-1H-imidazo[4,5-c]pyridin-1-yl)butyl]-4-fluorobenzenesulfonamide Hydrate] |  |  | 0.37 | 0.01 |
| CCCCc1nc2c(N)nc(C)c(C)c2n1CCCCNC(=S)Nc1ccccc1 [Example 5, N-[4-(4-Amino-2-butyl-6,7-dimethyl-1H-imidazo[4,5-c]pyridin-1-yl)butyl]-N′-phenylthiourea Hydrate] |  |  | 0.12 | 0.01 |
| Cc1nc(N)c2ncn(CCCCNC(=O)NC(C)C)c2c1C [Example 16] | * | * |  |  |
| Cc1nc(N)c2ncn(CCCCNC(=O)NC(C)(C)C)c2c1C [Example 17] | * |  |  | 30 |
| CCCCNC(=O)NCCCCn1cnc2c(N)nc(C)c(C)c21 [Example 18] | * | * |  |  |
| Cc1nc(N)c2ncn(CCCCNC(=O)Nc3ccccc3)c2c1C [Example 19] |  |  | 30 | 10 |
| Cc1nc(N)c2ncn(CCCCNC(=O)NC3CCCCC3)c2c1C [Example 20] | * |  |  | 30 |
| Cc1nc(N)c2ncn(CCCCNC(=O)Nc3cccc(C#N)c3)c2c1C [Example 21] | * | * |  |  |
| COc1cccc(NC(=O)NCCCCn2cnc3c(N)nc(C)c(C)c32)c1 [Example 22] | * | * |  |  |
| CC(=O)c1cccc(NC(=O)NCCCCn2cnc3c(N)nc(C)c(C)c32)c1 [Example 23] | * | * |  |  |
| Cc1nc(N)c2ncn(CCCCNC(=O)Nc3ccc(N(C)C)cc3)c2c1C [Example 24] |  |  | 30 | 10 |
| CSc1cccc(NC(=O)NCCCCn2cnc3c(N)nc(C)c(C)c32)c1 [Example 25] |  | * | 3.33 |  |
| COc1ccc(NC(=O)NCCCCn2cnc3c(N)nc(C)c(C)c32)c(OC)c1 [Example 26] |  |  | 30 | 30 |
| Cc1nc(N)c2ncn(CCCCNC(=O)N3CCOCC3)c2c1C [Example 27, N-[4-(4-amino-6,7-dimethyl-1H-imidazo[4,5-c]pyridin-1-yl)butyl]morpholin-4-ylcarboxamide] | * | * |  |  |
| Cc1nc(N)c2ncn(CCCCNC(=O)NS(=O)(=O)c3ccccc3)c2c1C [Example 29] | * | * |  |  |
| Cc1ccc(S(=O)(=O)NC(=O)NCCCCn2cnc3c(N)nc(C)c(C)c32)cc1 [Example 30] | * | * |  |  |

| SMILES | Lowest Effective Concentration Tumor Necrosis Factor [1] | Lowest Effective Concentration Interferon (interferon (α)) | minimal effective concentration [1] [µM] | minimal effective concentration (interferon (α)) [µM] |
| --- | --- | --- | --- | --- |
| Cc1nc(N)c2ncn(CCCCNC(=O)NS(=O)(=O)c3ccc(Cl)cc3)c2c1C [Example 31] | * | * |  |  |
| CNC(=S)NCCCCn1cnc2c(N)nc(C)c(C)c21 [Example 32] | * | * |  |  |
| Cc1nc(N)c2ncn(CCCCNC(=S)Nc3ccccc3)c2c1C [Example 33] |  |  | 3.33 | 3.33 |
| Cc1nc(N)c2ncn(CCCCNC(=S)NCCc3ccccc3)c2c1C [Example 34] | * | * |  |  |
| COc1ccc(NC(=S)NCCCCn2cnc3c(N)nc(C)c(C)c32)cc1 [Example 35] |  |  | 30 | 3.33 |
| CCOCc1nc2c(N)nc(C)cc2n1CCCCNC(=O)NC(C)C [Example 36] |  |  | 30 | 1.11 |
| CCCCNC(=O)NCCCCn1c(COCC)nc2c(N)nc(C)cc21 [Example 38] |  |  | 30 | 3.33 |
| CCOCc1nc2c(N)nc(C)cc2n1CCCCNC(=O)Nc1ccccc1 [Example 39] |  |  | 10 | 3.33 |
| CCOCc1nc2c(N)nc(C)cc2n1CCCCNC(=O)NCC(=O)OCC [Example 40] | * |  |  | 3.33 |
| CCOCc1nc2c(N)nc(C)cc2n1CCCCNC(=O)Nc1cccc(C#N)c1 [Example 41] |  |  | 30 | 10 |
| CCOCc1nc2c(N)nc(C)cc2n1CCCCNC(=O)Nc1cccc(C(C)=O)c1 [Example 42] |  |  | 10 | 10 |
| CCOCc1nc2c(N)nc(C)cc2n1CCCCNC(=O)Nc1ccc(N(C)C)cc1 [Example 43] |  |  | 10 | 0.041 |
| CCOCc1nc2c(N)nc(C)cc2n1CCCCNC(=O)Nc1cccc(SC)c1 [Example 44] |  |  | 10 | 3.33 |
| CCOCc1nc2c(N)nc(C)cc2n1CCCCNC(=O)Nc1ccc(OC)cc1OC [Example 45] |  |  | 10 | 3.33 |
| CCOCc1nc2c(N)nc(C)cc2n1CCCCNC(=O)NS(=O)(=O)c1ccccc1 [Example 47] | * | * |  |  |
| CCOCc1nc2c(N)nc(C)cc2n1CCCCNC(=O)NS(=O)(=O)c1ccc(C)cc1 [Example 48] | * | * |  |  |
| CCOCc1nc2c(N)nc(C)cc2n1CCCCNC(=S)NC [Example 49] |  |  | 30 | 3.33 |
| CCOCc1nc2c(N)nc(C)cc2n1CCCCNC(=S)Nc1ccccc1 [Example 50] |  |  | 3.33 | 0.37 |
| CCOCc1nc2c(N)nc(C)cc2n1CCCCNC(=S)NCCc1ccccc1 [Example 51] |  |  | 10 | 3.33 |
| CCOCc1nc2c(N)nc(C)cc2n1CCCCNC(=S)Nc1ccc(OC)cc1 [Example 52] |  |  | 3.33 | 0.37 |
